pEC50: −log10 of the molar value. Some results are limits rather than exact numbers.

The test has as its target T1, recombinant human pancreatic GLK (Homo sapiens, UniProt P35557).
T1 sequence (P35557 1-465): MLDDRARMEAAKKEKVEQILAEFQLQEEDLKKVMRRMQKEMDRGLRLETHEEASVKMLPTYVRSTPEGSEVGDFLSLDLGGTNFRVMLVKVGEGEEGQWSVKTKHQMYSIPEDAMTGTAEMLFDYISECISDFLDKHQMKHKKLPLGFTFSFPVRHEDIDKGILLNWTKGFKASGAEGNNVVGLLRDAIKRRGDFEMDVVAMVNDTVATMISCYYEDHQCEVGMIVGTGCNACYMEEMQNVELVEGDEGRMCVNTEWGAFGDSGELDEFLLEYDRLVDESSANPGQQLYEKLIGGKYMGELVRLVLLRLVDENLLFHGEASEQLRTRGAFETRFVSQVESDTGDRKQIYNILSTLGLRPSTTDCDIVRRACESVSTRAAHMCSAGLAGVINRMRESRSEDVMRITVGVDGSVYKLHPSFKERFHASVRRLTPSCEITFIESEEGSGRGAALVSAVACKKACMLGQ
The test is described as follows: biochemical.
As usually defined, the pEC50 is the EC50 on a negative log10 scale, so that one unit is a factor of ten. Turning to `COCCC(Oc1ncnc2c1cnn2-c1ccccc1OC)C(=O)Nc1ccc(C)cn1` (centres unmarked) [Example 22, 4-Methoxy-2-{[1-(2-methoxyphenyl)-1H-pyrazolo[3,4-d]pyrimidin-4-yl]oxy}-N-(5-methylpyridin-2-yl)butanamide], the pEC50 was 6.72.
Next, `COCC[C@@H](Oc1ncnc2c1cnn2-c1ccccc1OC)C(=O)Nc1ccc(C)cn1` [Example 23, (R)-4-Methoxy-2-{[1-(2-methoxyphenyl)-1H-pyrazolo[3,4-d]pyrimidin-4-yl]oxy}-N-(5-methylpyridin-2-yl)butanamide]: at most 4.00; `COCC[C@H](Oc1ncnc2c1cnn2-c1ccccc1OC)C(=O)Nc1ccc(C)cn1` [Example 24, (S)-4-methoxy-2-{[1-(2-methoxyphenyl)-1H-pyrazolo[3,4-d]pyrimidin-4-yl]oxy}-N-(5-methylpyridin-2-yl)butanamide]: 6.92; `COCCC(Oc1ncnc2c1cnn2-c1ccc(F)cc1F)C(=O)Nc1ccc(C)cn1` (centres unmarked) [Example 25, 2-{[1-(2,4-Difluorophenyl)-1H-pyrazolo[3,4-d]pyrimidin-4-yl]oxy}-4-methoxy-N-(5-methylpyridin-2-yl)butanamide]: 5.92.
Next, `COCC[C@@H](Oc1ncnc2c1cnn2-c1ccc(F)cc1F)C(=O)Nc1ccc(C)cn1` [Example 26, (R)-2-{[1-(2,4-Difluorophenyl)-1H-pyrazolo[3,4-d]pyrimidin-4-yl]oxy}-4-methoxy-N-(5-methylpyridin-2-yl)butanamide]: 4.46.
Next, `COCC[C@H](Oc1ncnc2c1cnn2-c1ccc(F)cc1F)C(=O)Nc1ccc(C)cn1` [Example 27, (S)-2-{[1-(2,4-difluorophenyl)-1H-pyrazolo[3,4-d]pyrimidin-4-yl]oxy}-4-methoxy-N-(5-methylpyridin-2-yl)butanamide]: 6.00; `COCCC(Oc1ncnc2c1cnn2-c1cccc(C)c1)C(=O)Nc1ccc(C)cn1` (centres unmarked) [Example 31, 4-Methoxy-2-{[1-(3-methylphenyl)-1H-pyrazolo[3,4-d]pyrimidin-4-yl]oxy}-N-(5-methylpyridin-2-yl)butanamide]: 6.46; `COCC[C@@H](Oc1ncnc2c1cnn2-c1cccc(C)c1)C(=O)Nc1ccc(C)cn1` [Example 32, (R)-4-Methoxy-2-{[1-(3-methylphenyl)-1H-pyrazolo[3,4-d]pyrimidin-4-yl]oxy}-N-(5-methylpyridin-2-yl)butanamide]: at most 4.00.
Regarding `COCC[C@H](Oc1ncnc2c1cnn2-c1cccc(C)c1)C(=O)Nc1ccc(C)cn1` [Example 33, (S)-4-methoxy-2-{[1-(3-methylphenyl)-1H-pyrazolo[3,4-d]pyrimidin-4-yl]oxy}-N-(5-methylpyridin-2-yl)butanamide], the pEC50 was under 5.77.
Next, `COCCC(Oc1ncnc2c1cnn2-c1ccccn1)C(=O)Nc1ccc(C)cn1` (centres unmarked) [Example 34, 4-Methoxy-N-(5-methylpyridin-2-yl)-2-[(1-pyridin-2-yl-1H-pyrazolo[3,4-d]pyrimidin-4-yl)oxy]butanamide]: 5.72; `COCCC(Oc1ncnc2c1cnn2-c1ccccc1OC)C(=O)Nc1nc(C)cs1` (centres unmarked) [Example 35, 4-Methoxy-2-{[1-(2-methoxyphenyl)-1H-pyrazolo[3,4-d]pyrimidin-4-yl]oxy}-N-(4-methyl-1,3-thiazol-2-yl)butanamide]: 5.68; `COCC[C@@H](Oc1ncnc2c1cnn2-c1ccccc1OC)C(=O)Nc1nc(C)cs1` [Example 36, (R)-4-Methoxy-2-{[1-(2-methoxyphenyl)-1H-pyrazolo[3,4-d]pyrimidin-4-yl]oxy}-N-(4-methyl-1,3-thiazol-2-yl)butanamide]: at most 4.00.
Next, `COCC[C@H](Oc1ncnc2c1cnn2-c1ccccc1OC)C(=O)Nc1nc(C)cs1` [Example 37, (S)-4-methoxy-2-{[1-(2-methoxyphenyl)-1H-pyrazolo[3,4-d]pyrimidin-4-yl]oxy}-N-(4-methyl-1,3-thiazol-2-yl)butanamide]: 5.89; `CCCCC(Oc1ncnc2c1cnn2-c1ccccc1Cl)C(=O)Nc1ccc(C)cn1` (centres unmarked) [Example 38, 2-{[1-(2-chlorophenyl)-1H-pyrazolo[3,4-d]pyrimidin-4-yl]oxy}-N-(5-methylpyridin-2-yl)hexanamide]: 7.70.
As for `CCCCC(Oc1ncnc2c1cnn2C)C(=O)Nc1ccc(C)cn1` (centres unmarked) [Example 39, 2-[(1-methyl-1H-pyrazolo[3,4-d]pyrimidin-4-yl)oxy]-N-(5-methylpyridin-2-yl)hexanamide], the pEC50 was 4.96.
Consider `CCCCC(Oc1ncnc2c1cnn2-c1ccccc1Cl)C(=O)Nc1cnc(C)cn1` (centres unmarked) [Example 40, 2-{[1-(2-chlorophenyl)-1H-pyrazolo[3,4-d]pyrimidin-4-yl]oxy}-N-(5-methylpyrazin-2-yl)hexanamide], for which the pEC50 is 6.85.
For the compound `CCC(Oc1ncnc2c1cnn2-c1ccccc1OC)C(=O)Nc1ccc(C)cn1` (centres unmarked) [Example 42, 2-{[1-(2-Methoxyphenyl)-1H-pyrazolo[3,4-d]pyrimidin-4-yl]oxy}-N-(5-methylpyridin-2-yl)butanamide], the pEC50 was 6.39.
Next, `CC[C@@H](Oc1ncnc2c1cnn2-c1ccccc1OC)C(=O)Nc1ccc(C)cn1` [Example 43, (2R)-2-{[1-(2-Methoxyphenyl)-1H-pyrazolo[3,4-d]pyrimidin-4-yl]oxy}-N-(5-methylpyridin-2-yl)butanamide]: 5.38; `COc1ccccc1-n1ncc2c(OC(C)C(=O)Nc3ccc(C)cn3)ncnc21` (centres unmarked) [Example 44, 2-{[1-(2-Methoxyphenyl)-1H-pyrazolo[3,4-d]pyrimidin-4-yl]oxy}-N-(5-methylpyridin-2-yl)propanamide]: 5.47.
Turning to `Cc1ccc(NC(=O)[C@H](CCN(C)C)Oc2ncnc3c2cnn3-c2ccccc2Cl)nc1` [Example 47, (2S)-2-{[1-(2-chlorophenyl)-1H-pyrazolo[3,4-d]pyrimidin-4-yl]oxy}-4-(dimethylamino)-N-(5-methylpyridin-2-yl)butanamide], the negative logarithm of the EC50 (pEC50) is 6.00.
On to `CC(=O)NCC(Oc1ncnc2c1cnn2-c1ccccc1Cl)C(=O)Nc1nc(C)cs1` (centres unmarked) [Example 48, 3-Acetamido-2-{[1-(2-chlorophenyl)-1h-pyrazolo[3,4-d]pyrimidin-4-yl]oxy}-n-(4-methyl-1,3-thiazol-2-yl)propanamide], for which the pEC50 is 4.96.
Next, `Cc1ccc(NC(=O)C(CCC(=O)O)Oc2ncnc3c2cnn3-c2ccccc2Cl)nc1` (centres unmarked) [Example 49, 4-{[1-(2-chlorophenyl)-1H-pyrazolo[3,4-d]pyrimidin-4-yl]oxy}-5-[(5-methylpyridin-2-yl)amino]-5-oxopentanoic acid]: 4.47; `Cc1ccc(NC(=O)C(CCC(N)=O)Oc2ncnc3c2cnn3-c2ccccc2Cl)nc1` (centres unmarked) [Example 50, 2-{[1-(2-chlorophenyl)-1H-pyrazolo[3,4-d]pyrimidin-4-yl]oxy}-N1-(5-methylpyridin-2-yl)pentanediamide]: 6.23.
Turning to `CNC(=O)CCC(Oc1ncnc2c1cnn2-c1ccccc1Cl)C(=O)Nc1ccc(C)cn1` (centres unmarked) [Example 51, 2-{[1-(2-chlorophenyl)-1H-pyrazolo[3,4-d]pyrimidin-4-yl]oxy}-N5-methyl-N1-(5-methylpyridin-2-yl)pentanediamide], the pEC50 was 5.36.
Next, `COCCOCCC(Sc1ncnc2c1cnn2-c1ccccc1Cl)C(=O)Nc1nc(C)cs1` (centres unmarked) [Example 52, 2-{[1-(2-chlorophenyl)-1H-pyrazolo[3,4-d]pyrimidin-4-yl]thio}-4-(2-methoxyethoxy)-N-(4-methyl-1,3-thiazol-2-yl)butanamide]: 5.54; `COCCC(Sc1ncnc2c1cnn2-c1ccccc1Cl)C(=O)Nc1nc(C)cs1` (centres unmarked) [Example 53, 2-{[1-(2-chlorophenyl)-1H-pyrazolo[3,4-d]pyrimidin-4-yl]thio}-4-methoxy-N-(4-methyl-1,3-thiazol-2-yl)butanamide]: 6.11.
As to `CCC(C)C(Sc1ncnc2c1cnn2-c1ccccc1Cl)C(=O)Nc1nc(C)cs1` (centres unmarked) [Example 54, 2-{[1-(2-chlorophenyl)-1H-pyrazolo[3,4-d]pyrimidin-4-yl]thio}-3-methyl-N-(4-methyl-1,3-thiazol-2-yl)pentanamide], the pEC50 is 5.40.
Next, `CCC(C)C(Sc1ncnc2c1cnn2-c1ccccc1Cl)C(=O)Nc1ccon1` (centres unmarked) [Example 55, 2-{[1-(2-chlorophenyl)-1H-pyrazolo[3,4-d]pyrimidin-4-yl]thio}-N-isoxazol-3-yl-3-methylpentanamide]: under 4.70.
Turning to `CCC(C)C(Sc1ncnc2c1cnn2-c1ccccc1Cl)C(=O)Nc1ccc(C)cn1` (centres unmarked) [Example 56, 2-{[1-(2-chlorophenyl)-1H-pyrazolo[3,4-d]pyrimidin-4-yl]thio}-3-methyl-N-(5-methylpyridin-2-yl)pentanamide], the pEC50 is 5.51.
Turning to `COCCOCCC(Sc1ncnc2c1cnn2C(C)C)C(=O)Nc1nc(C)cs1` (centres unmarked) [Example 57, 2-[(1-Isopropyl-1H-pyrazolo[3,4-d]pyrimidin-4-yl)thio]-4-(2-methoxyethoxy)-N-(4-methyl-1,3-thiazol-2-yl)butanamide], the pEC50 is 4.52.
Next, `COCCOCCC(Sc1ncnc2c1cnn2C(C)C)C(=O)Nc1ccc(C)cn1` (centres unmarked) [Example 58, 2-[(1-Isopropyl-1H-pyrazolo[3,4-d]pyrimidin-4-yl)thio]-4-(2-methoxyethoxy)-N-(5-methylpyridin-2-yl)butanamide]: 5.71; `CCCCC(Sc1ncnc2c1cnn2-c1ccccc1Cl)C(=O)Nc1nc(C)cs1` (centres unmarked) [Example 59, 2-{[1-(2-chlorophenyl)-1h-pyrazolo[3,4-]pyrimidin-4-yl]thio}-n-(4-methyl-1,3-thiazol-2-yl)hexanamide]: 6.19.

The values above are taken from US8143263B2, “Therapeutic agents” (Astrazeneca AB, priority 2008, dated 2012).
